Measurements from patent US4599336A, “Derivatives of (E)-3-(4-oxo-4H-quinazolin-3-yl)-2-propenamide” (Hoffmann-La Roche Inc., priority 1983, dated 1986).

Target: T1, Δ^5 -Lipoxygenase (Rattus norvegicus, UniProt P12527)
T1 construct: using rat basophil leukemia cells (RBL-1 cells) as the enzyme source; endogenous in cells; host or cells: RBL-1 (rat basophil leukemia) cells, 49,300×g supernatant of homogenate
T1 sequence (P12527 1-673): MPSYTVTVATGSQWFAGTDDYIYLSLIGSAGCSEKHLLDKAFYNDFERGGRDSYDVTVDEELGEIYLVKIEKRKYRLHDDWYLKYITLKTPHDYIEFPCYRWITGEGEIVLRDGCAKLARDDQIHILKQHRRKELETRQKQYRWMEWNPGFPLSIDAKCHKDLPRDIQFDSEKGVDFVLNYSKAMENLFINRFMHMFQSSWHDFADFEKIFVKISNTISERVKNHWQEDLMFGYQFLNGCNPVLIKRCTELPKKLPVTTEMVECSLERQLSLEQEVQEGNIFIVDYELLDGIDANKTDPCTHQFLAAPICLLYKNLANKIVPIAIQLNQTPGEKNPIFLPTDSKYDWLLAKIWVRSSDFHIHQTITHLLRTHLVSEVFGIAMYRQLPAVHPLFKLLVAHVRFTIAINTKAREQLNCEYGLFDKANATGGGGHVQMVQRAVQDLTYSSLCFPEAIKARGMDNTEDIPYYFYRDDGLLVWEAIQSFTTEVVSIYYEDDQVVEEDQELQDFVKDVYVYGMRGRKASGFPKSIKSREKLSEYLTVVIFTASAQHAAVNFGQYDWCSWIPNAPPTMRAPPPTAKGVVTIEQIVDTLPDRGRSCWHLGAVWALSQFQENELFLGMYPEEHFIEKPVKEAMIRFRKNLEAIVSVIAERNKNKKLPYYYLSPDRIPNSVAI
Test: Δ^5 -Lipoxygenase Inhibition
Assay type: biochemical
Details: RBL-1 cell supernatant; for inhibition at 10 µM: at 10^-5 M
Protocol: Δ^5 -Lipoxygenase inhibition was measured by following the conversion of ^14 C-arachidonic acid to ^14 C-5-HETE, using rat basophil leukemia cells (RBL-1 cells) as the enzyme source. These cells were maintained in stationary stock cultures and grown in spinner cultures prior to isolation by centrifugation at 4° C. at 1,500×g for 10 minutes. The cells were washed three times at 4° C. with 0.05M Tris HCl (ph 7.2) containing 1 mM EDTA, 14 μM indomethacin and 0.9% NaCl. They were then homogenized at 0°-4° C. using a glass/glass homogenizer in 0.05M Tris-HCl (pH 7.2) containing 1 mM EDTA and 14 μM indomethacin. The homogenate was then centrifuged at 49,300×g for 20 minutes (0°-4° C.) and the resulting supernatant frozen in small aliquots in a dry ice/acetone bath prior to storage at -80° C. Under these conditions, the enzyme was stable to freezing and thawing and to preincubation for 10 minutes at 30° C.
For enzyme assay, 100-200 μl of enzyme was incubated in the presence and absence of test compound (prepared in DMSO) for 10 minutes at 30° C. in 0.05M Tris-HCl buffer (pH 7.2) containing 1 mM glutathione, 2 mM CaCl2, 14 μM indomethacin and 0.25 and 0.5 mM EDTA (final volume 400 μl). The final DMSO concentration in these assays was 4%. The assay was initiated by the addition of 100 μl ^14 C-arachidonic acid (58 mCi/mmole) and incubations were carried out for 10 minutes at 37° C. in a shaking water bath. The reactions were stopped by the simultaneous addition of 4.0 ml of diethylether and 100 μl of 1.0 m citric acid, while the tubes were vigorously vortexed. The ^14 C-5-HETE generated by the enzyme was extracted into the acidified ether layer which was separated from the aqueous layer by freezing the assay tubes in a dry ice/acetone bath prior to decanting the liquid ether layer. The ether layer was evaporated to dryness under N2, the residue dissolved in 65 μl chloroform:methanol (2:1 v/v), prior to separating ^14 C-5-HETE from other ^14 C-labeled compounds on silica gel impregnated glass fiber TLC plates utilizing an elution solvent of isoctane:methylethylketone:acetic acid (100:9:1 v/v). ^14 C-5-HETE was identified by its co-chromatography with a chemically synthesized standard. The radioactive peaks of the chromatogram were cut out and the radioactivity was quantitated by liquid scintillation counting. The amount of 5-HETE obtained per sample was expressed as the percent of total and was calculated in the basis of: [formula] in order to evaluate the effect of the test compounds, the mean percent inhibition of ^14 C-5-HETE production was calculated. The IC50 for a drug was determined from a linear regression analysis of a plot of the mean percent inhibition vs drug concentration.

| IC50 [nM] | inhibition at 10 µM [%] | inhibition at 1 µM (at 10^-6 M) [%] | Structure (SMILES) |
| --- | --- | --- | --- |
| 800 | 100 | – | CC(C)c1ccc2ncn(/C=C/C(=O)NCCCCc3ccccn3)c(=O)c2c1 [drawing 17] |
| – | 84 | 27 | CC(C)c1ccc2ncn(/C=C/C(=O)NCCCCc3cccnc3)c(=O)c2c1 [drawing 12] |
| – | 0 | – | CC(C)c1ccc2ncn(/C=C/C(=O)NCCCCn3ccnc3)c(=O)c2c1 [drawing 15] |
